# Patent US20210198277A1, “AMINE-SUBSTITUTED ARYL OR HETEROARYL COMPOUNDS” (Epizyme, Inc., priority 2016, published 2021)
# Read-outs that look alike come from different tables or passages of the source.
# What was measured:
# [1] = biological target: T1, EHMT1 (Homo sapiens, UniProt Q9H9B1); assay: EHMT1 enzyme assay on peptide substrate (EHMT1 PEP); assay type: biochemical
# T1 sequence (Q9H9B1 1-1298): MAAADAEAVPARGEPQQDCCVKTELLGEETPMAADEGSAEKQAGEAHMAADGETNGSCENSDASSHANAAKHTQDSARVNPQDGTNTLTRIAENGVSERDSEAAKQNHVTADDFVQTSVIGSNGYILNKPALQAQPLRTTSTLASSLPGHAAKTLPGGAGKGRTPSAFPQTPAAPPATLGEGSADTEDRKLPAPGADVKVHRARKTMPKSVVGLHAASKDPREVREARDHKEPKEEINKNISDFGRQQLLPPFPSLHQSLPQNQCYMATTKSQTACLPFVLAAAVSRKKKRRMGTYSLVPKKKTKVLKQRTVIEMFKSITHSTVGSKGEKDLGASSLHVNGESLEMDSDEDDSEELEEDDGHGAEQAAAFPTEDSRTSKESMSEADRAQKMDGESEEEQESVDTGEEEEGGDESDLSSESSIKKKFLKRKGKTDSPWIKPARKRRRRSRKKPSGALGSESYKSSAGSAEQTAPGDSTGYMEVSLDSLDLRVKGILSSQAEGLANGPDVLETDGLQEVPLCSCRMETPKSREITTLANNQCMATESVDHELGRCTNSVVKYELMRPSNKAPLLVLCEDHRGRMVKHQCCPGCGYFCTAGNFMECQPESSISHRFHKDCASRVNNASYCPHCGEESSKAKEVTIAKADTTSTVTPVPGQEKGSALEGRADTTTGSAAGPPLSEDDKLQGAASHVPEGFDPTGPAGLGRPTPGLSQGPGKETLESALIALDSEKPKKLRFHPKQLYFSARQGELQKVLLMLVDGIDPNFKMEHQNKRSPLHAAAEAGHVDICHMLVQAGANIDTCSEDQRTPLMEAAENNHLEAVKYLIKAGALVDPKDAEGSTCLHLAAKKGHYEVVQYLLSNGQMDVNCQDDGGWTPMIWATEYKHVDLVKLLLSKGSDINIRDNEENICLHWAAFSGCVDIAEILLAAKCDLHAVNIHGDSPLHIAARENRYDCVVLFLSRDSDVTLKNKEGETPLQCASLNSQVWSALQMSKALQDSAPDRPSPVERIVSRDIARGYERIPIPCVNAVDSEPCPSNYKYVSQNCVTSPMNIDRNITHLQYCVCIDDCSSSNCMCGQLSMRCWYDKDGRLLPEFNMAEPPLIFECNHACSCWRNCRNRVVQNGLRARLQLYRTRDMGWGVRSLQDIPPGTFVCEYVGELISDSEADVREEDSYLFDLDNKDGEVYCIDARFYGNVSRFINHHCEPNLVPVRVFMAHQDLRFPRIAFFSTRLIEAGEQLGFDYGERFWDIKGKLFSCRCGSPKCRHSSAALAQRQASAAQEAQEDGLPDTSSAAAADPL
# [2] = biological target: T2, human EHMT2 913-1193 (Homo sapiens, UniProt Q96KQ7); assay: EHMT2 enzyme assay on histone peptide substrate (EHMT2 PEP); assay type: biochemical
# T2 construct: recombinant purified human EHMT2 913-1193, Viva; purchased Viva
# T2 sequence (Q96KQ7 913-1193): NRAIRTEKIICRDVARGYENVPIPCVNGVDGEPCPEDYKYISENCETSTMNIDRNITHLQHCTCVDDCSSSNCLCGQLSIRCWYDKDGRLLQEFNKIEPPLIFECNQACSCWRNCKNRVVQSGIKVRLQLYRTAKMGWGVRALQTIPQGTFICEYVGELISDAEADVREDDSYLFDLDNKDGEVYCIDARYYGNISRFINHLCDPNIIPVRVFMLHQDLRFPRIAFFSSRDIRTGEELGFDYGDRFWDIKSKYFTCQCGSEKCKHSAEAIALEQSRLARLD
# Procedure: Recombinant purified human EHMT2 913-1193 (55 μM) synthesized by Viva was used for all experiments. Biotinylated histone peptides were synthesized by Biopeptide and HPLC-purified to >95% purity. Streptavidin Flashplates and seals were purchased from PerkinElmer and 384 Well V-bottom Polypropylene Plates were from Greiner. ^3H-labeled S-adenosylmethionine (^3H-SAM) was obtained from American Radiolabeled Chemicals with a specific activity of 80 Ci/mmol. Unlabeled SAM and S-adenosylhomocysteine (SAH) were obtained from American Radiolabeled Chemicals and Sigma-Aldrich respectively. Flashplates were washed in a Biotek ELx-405 with 0.1% Tween. 384-well Flashplates and 96-well filter binding plates were read on a TopCount microplate reader (PerkinElmer). Compound serial dilutions were performed on a Freedom EVO (Tecan) and spotted into assay plates using a Thermo Scientific Matrix PlateMate (Thermo Scientific). Reagent cocktails were added by Multidrop Combi (Thermo Scientific).
# General Procedure for EHMT2 Enzyme Assay on Histone Peptide Substrate.
# 10-point curves of test compounds were made on a Freedom EVO (Tecan) using serial 3-fold dilutions in DMSO, beginning at 2.5 mM (final top concentration of compound was 50 μM and the DMSO was 2%). A 1 μL aliquot of the inhibitor dilution series was spotted in a polypropylene 384-well V-bottom plate (Greiner) using a Thermo Scientific Matrix PlateMate (Thermo Scientific). […] Compounds were incubated for 30 minutes with 40 μL per well of 0.031 nM EHMT2 (recombinant purified human EHMT2 913-1193, Viva) in 1× assay buffer (20 mM Bicine [pH 7.5], 0.002% Tween 20, 0.005% Bovine Skin Gelatin and 1 mM TCEP). […] Reactions were incubated for 60 minutes at room temperature and quenched with 10 μL per well of 400 μM unlabeled SAM, then transferred to a 384-well streptavidin Flashplate (PerkinElmer) and washed in a Biotek ELx-405 well washer with 0.1% Tween after 60 minutes. 384-well Flashplates were read on a TopCount microplate reader (PerkinElmer).
# [3] = Table II, read-out: EHMT1 PEP (IC50 μM)
# [4] = Table II, read-out: EHMT2 PEP (IC50 μM)
# [5] = Table VII, read-out: EHMT1 PEP IC50
# [6] = Table VII, read-out: EHMT2 PEP IC50
SMILES,"IC50 [1, 3]","IC50 [2, 4]",also measured
COc1ccc(Nc2cc(C)nc3ncnn23)cc1OCCCN1CCCC1 [Compound 202],> 10 µM,> 10 µM,–
"COc1ccc(Nc2ccnc(NCC3CCNCC3)c2)cc1OCCCN1CCCC1 [Compound 11, N^4-(4-methoxy-3-(3-(pyrrolidin-1-yl)propoxy)phenyl)-N^2-(piperidin-4-ylmethyl)pyridine-2,4-diamine]",< 0.1 µM,< 0.1 µM,–
CC(=O)N1CCC(CNc2ccnc(Nc3cccc(NC(=O)CCN4CCCC4)c3)n2)CC1 [Compound 114],> 10 µM,> 10 µM,–
CCNc1nc(C)cc(Nc2ccc(NC(=O)Nc3ccc(F)cc3)cc2)n1 [Compound 1116],–,–,"IC50 [1, 5]: > 10 µM; IC50 [2, 6]: 1 to 10 µM"
CCCCNc1nccc(NC2CCC(NC(C)=O)CC2)n1 (centres unmarked) [Compound 71],> 10 µM,> 10 µM,–
COc1ccc(Nc2ncc(NC(C)=O)cn2)cc1OCCCN1CCCC1 [Compound 194],> 10 µM,> 10 µM,–
COc1ccc(Nc2nccc(N3CCOCC3)n2)cc1OCCCN1CCCC1 [Compound 102],> 10 µM,> 10 µM,–
CC(=O)N1CCC(CNc2ccnc(Nc3cccc(NC(=O)c4cc(C5CC5)on4)c3)n2)CC1 [Compound 122],> 10 µM,> 10 µM,–
CCCCNc1nccc(NC2CCNCC2)n1 [Compound 64],> 10 µM,> 10 µM,–
CCCCNc1nccc(NCC2CCNCC2)n1 [Compound 60],1 to 10 µM,1 to 10 µM,–
CCCCNc1nc(NCC2CCNCC2)ncc1C#N [Compound 84],> 10 µM,> 10 µM,–
CCCCNc1nccc(NCC2CCC(N)CC2)n1 (centres unmarked) [Compound 68],> 10 µM,> 10 µM,–
CCNc1nc(C)cc(Nc2ccc(NC(=O)Nc3ccc(C)c(C)c3)cc2)n1 [Compound 1118],–,–,"IC50 [1, 5]: > 10 µM; IC50 [2, 6]: 1 to 10 µM"
CCCCNc1nccc(NCC2CCOCC2)n1 [Compound 59],> 10 µM,> 10 µM,–
CCCCNc1ccnc(NCCCN2CCCC2)n1 [Compound 73],> 10 µM,> 10 µM,–
COc1ccc(Nc2nccc(NCC3CCN(C(C)=O)CC3)n2)cc1OCC1CCCN1C (centres unmarked) [Compound 120],0.1 to 1 µM,1 to 10 µM,–
"CNc1nc(Nc2ccc(OC)c(OCCCN3CCCC3)c2)nc2ccccc12 [Compound 263, N^2-(4-methoxy-3-(3-(pyrrolidin-1-yl)propoxy)phenyl)-N^4-methylquinazoline-2,4-diamine]",–,–,"IC50 ([1]; Table III, read-out: EHMT1 PEP (IC50 μM)): < 0.1 µM; IC50 ([2]; Table III, read-out: EHMT2 PEP (IC50 μM)): < 0.1 µM"
O=C(NCCNc1ccnc(NCC2CCNCC2)n1)c1ccc(N2CCCC2)cc1 [Compound 99],> 10 µM,> 10 µM,–
CCCCNc1nccc(NC2CCC(N)CC2)n1 (centres unmarked) [Compound 70],> 10 µM,> 10 µM,–

SMILES,"IC50 [1, 3]","IC50 [2, 4]",also measured
COc1ccc(Nc2ncc(N)cn2)cc1OCCCN1CCCC1 [Compound 213],> 10 µM,> 10 µM,–
COc1cnc(Nc2cc(CNC3CCOCC3)ccn2)cc1OCCCN1CCCC1 [Compound 110],1 to 10 µM,1 to 10 µM,–
COc1ccc(Nc2nccc(NCC3CCNCC3)n2)cc1OCCCN1CCCC1Cc1ccccc1 (centres unmarked) [Compound 116],1 to 10 µM,1 to 10 µM,–
COc1ccc(Nc2ccnc(CNC3CCOCC3)n2)cc1OCCCN1CCCC1 [Compound 190],1 to 10 µM,1 to 10 µM,–
COc1ccc(Nc2nccc(CCN3CCN(C(C)=O)CC3)n2)cc1OCCCN1CCCC1 [Compound 196],> 10 µM,> 10 µM,–
CC(=O)N1CCC(CNc2nccc(NCCNC(=O)c3ccc4c(c3)CC(=O)N4)n2)CC1 [Compound 98],> 10 µM,> 10 µM,–
CCCCNc1ccnc(NCC2CCN(C)CC2)n1 [Compound 87],1 to 10 µM,1 to 10 µM,–
CN1CCC(CNc2nccc(NCCNC(=O)c3ccc4c(c3)CC(=O)N4)n2)CC1 [Compound 101],> 10 µM,1 to 10 µM,–
CCCCNc1nccc(NCCCN2CCCC2)n1 [Compound 74],> 10 µM,> 10 µM,–
CCCCNc1nccc(NCC2CCN(C(C)=O)CC2)n1 [Compound 66],> 10 µM,> 10 µM,–
CCCCNc1nccc(NC2CCN(C(C)=O)CC2)n1 [Compound 65],> 10 µM,> 10 µM,–
COc1ccc(Nc2ccc3ncn(C)c3c2)cc1OCCCN1CCCC1 [Compound 200],> 10 µM,> 10 µM,–
COc1ccc(Nc2nccc(NCC3CCN(C(C)=O)CC3)n2)cc1OCCCN1CC[C@@H](F)C1 [Compound 118],0.1 to 1 µM,0.1 to 1 µM,–
CCCCNc1nccc(C(=O)NC2CCOCC2)n1 [Compound 81],> 10 µM,> 10 µM,–
COc1ccc(Nc2cccc3nn(C)cc23)cc1OCCCN1CCCC1 [Compound 197],> 10 µM,> 10 µM,–
O=C1Cc2cc(C(=O)NCCNc3nccc(NCC4CCNCC4)n3)ccc2N1 [Compound 105],> 10 µM,1 to 10 µM,–
Cc1ccc(NC(=O)Nc2ccc(Nc3nc(C)cc(N4CCCC4)n3)cc2)cc1 [Compound 1119],–,–,"IC50 [1, 5]: 1 to 10 µM; IC50 [2, 6]: 1 to 10 µM"
CCCCNc1nccc(NCC2CCCO2)n1 (centres unmarked) [Compound 67],> 10 µM,> 10 µM,–
